“And” between values parts separate entries of the source, which are not always exact repeats. Equal values may be shown once. Read-outs that look alike come from different tables or passages of the source.
Assays:
L1 wild-type C. elegans = experiment: 15-hour motility assay with drug alone (no KCN); type: cell-based, Caenorhabditis elegans
H. polygyrus [1] = experiment: In vivo efficacy study in H. polygyrus mouse model; design: species or system NMRI mice infected with H. polygyrus; settings: for # Mice cured/ # Mice investigated: assessed 1 week after dosing; for Median # of living H. polygyrus worms: median (MAD) of adults collected from intestine; for Live worms in intestine (individual mouse) / Live worms in intestine, Median (+/- MAD): worm burden one week after dose; for Live worms in intestine (individual mouse): Mouse 1-4, 200 mg/kg; for Live worms in intestine, Median (+/- MAD): three to four mice
Protocol: For in vivo testing, female 3-week old NMRI mice were purchased from Charles River, Germany. The mice were kept in individually ventilated cages (IVC) under environmentally controlled conditions (temperature: 22 °C ± 2 °C; relative humidity: 55% ± 15%; artificial lighting with a circadian cycle of 12 h of light) and had free access to water (municipal tap water supply) and rodent food. Rodents were allowed to acclimatize to the new environment for 1 week before infection. Upon 2 days of arrival, dexamethasone (0.25 mg/L) (Sigma-Aldrich, Switzerland) was added to the normal drinking water for immunosuppression to enable parasite establishment. After 1 week, mice were orally infected with 100 H. polygyrus third larval stage (L3) in 150 µL water.
Four benzimidazole derivatives were tested for in vivo efficacy. The administration of dexamethasone was stopped after 12 days post-infection and 2 days later, the selected four benzimidazole derivatives were administered by oral gavage at a single dose of 200 mg/kg to groups of each four mice. Four mice were left untreated and served as a control group. The derivatives were prepared as a Tween80 (Sigma-Aldrich, Switzerland)/ethanol (Merck, Germany) mixture dissolved in tap water (7:3:90, v/v). After 6–7 days post-dosing, the mice were euthanized with CO2 and dissected. Adult worms were removed from the intestine and counted. The worm burden reduction was calculated by comparing the number of worms found in the control animals versus the treated animals.

H. polygyrus [2] = settings: single dose 100 mg/kg, mice; cited from earlier work
L1 C. briggsae (AF16) = experiment: Liquid development and viability assay, C. briggsae; type: cell-based, Caenorhabditis briggsae; settings: liquid growth and development assay, 1 = like DMSO control, 0 = death
Description: Supplementary Figure 9. Class A, B, and C benzimidazoles inhibit complex I of several Clade V nematode species in vitro. […]
against the in vitro complex I activity from C. elegans, C. briggsae, P. pacificus, and P. hermaphrodita […]
L1 C. elegans (N2), C. briggsae (AF16), and P. pacificus (PS312) in a nematode liquid growth and development assay. The colour-coded scale denotes the viability of nematodes following drug treatment relative to DMSO controls; white/pale-yellow indicates nematode growth and viability similar to DMSO controls and red indicates nematode death and arrested development. Data are the mean of at least three biological replicates. Due to seemingly poor growth in liquid culture, P. hermaphrodita was not tested in the liquid viability and development assay.
Supplementary Figure 9 (continued). Davie et al.

[3] = single oral dose 200 mg/kg, vs untreated control mice
[4] = single oral dose of 200 mg/kg, median worm counts versus control mice

O=C(NCCc1ccc(Cl)cc1)c1ccccc1C(F)(F)F [Wact-11]
Value relative to DMSO control, drug alone (without KCN) (L1 wild-type C. elegans): 0.932 | Value relative to DMSO control, drug alone (without KCN) (L1 wild-type C. elegans; 15 hour drug alone (without KCN) treatment, dose 0.1 µM, Mean of replicates): 1.053 | Value relative to DMSO control, drug alone (without KCN) (L1 wild-type C. elegans; 15 hour drug alone (without KCN) treatment, dose 0.1 µM, individual replicates): 0.994 and 1.015 and 1.070 and 1.131 | Value relative to DMSO control, drug alone (without KCN) (L1 wild-type C. elegans; 15 hour drug alone (without KCN) treatment, dose 0.2 µM, Mean of replicates): 1.080 | Value relative to DMSO control, drug alone (without KCN) (L1 wild-type C. elegans; 15 hour drug alone (without KCN) treatment, dose 0.2 µM, individual replicates): 0.940 and 1.013 and 1.214 and 1.154 | Value relative to DMSO control, drug alone (without KCN) (L1 wild-type C. elegans; 15 hour drug alone (without KCN) treatment, dose 0.4 µM, Mean of replicates): 1.046 | Value relative to DMSO control, drug alone (without KCN) (L1 wild-type C. elegans; 15 hour drug alone (without KCN) treatment, dose 0.4 µM, individual replicates): 0.988 and 1.230 and 1.034 | Value relative to DMSO control, drug alone (without KCN) (L1 wild-type C. elegans; 15 hour drug alone (without KCN) treatment, dose 0.8 µM, Mean of replicates): 1.007 | Value relative to DMSO control, drug alone (without KCN) (L1 wild-type C. elegans; 15 hour drug alone (without KCN) treatment, dose 0.8 µM, individual replicates): 0.912 and 0.907 and 0.949 and 1.257 | Value relative to DMSO control, drug alone (without KCN) (L1 wild-type C. elegans; 15 hour drug alone (without KCN) treatment, dose 3.1 µM, Mean of replicates): 0.983 | Value relative to DMSO control, drug alone (without KCN) (L1 wild-type C. elegans; 15 hour drug alone (without KCN) treatment, dose 3.1 µM, individual replicates): 0.954 and 0.915 and 1.162 and 0.901 | Value relative to DMSO control, drug alone (without KCN) (L1 wild-type C. elegans; 15 hour drug alone (without KCN) treatment, dose 6.3 µM, Mean of replicates): 0.923 | Value relative to DMSO control, drug alone (without KCN) (L1 wild-type C. elegans; 15 hour drug alone (without KCN) treatment, dose 6.3 µM, individual replicates): 0.914 and 0.918 and 0.975 and 0.884 | Value relative to DMSO control, drug alone (without KCN) (L1 wild-type C. elegans; 15 hour drug alone (without KCN) treatment, dose 12.5 µM, Mean of replicates): 0.780 | Value relative to DMSO control, drug alone (without KCN) (L1 wild-type C. elegans; 15 hour drug alone (without KCN) treatment, dose 12.5 µM, individual replicates): 0.693 and 0.662 and 1.090 and 0.677 | Value relative to DMSO control, drug alone (without KCN) (L1 wild-type C. elegans; 15 hour drug alone (without KCN) treatment, dose 25 µM, Mean of replicates): 0.783 | Value relative to DMSO control, drug alone (without KCN) (L1 wild-type C. elegans; 15 hour drug alone (without KCN) treatment, dose 25 µM, individual replicates): 0.523 and 0.436 and 0.991 and 1.184 | Value relative to DMSO control, drug alone (without KCN) (L1 wild-type C. elegans; 15 hour drug alone (without KCN) treatment, dose 50 µM, Mean of replicates): 0.600 | Value relative to DMSO control, drug alone (without KCN) (L1 wild-type C. elegans; 15 hour drug alone (without KCN) treatment, dose 50 µM, individual replicates): 0.549 and 0.392 and 0.803 and 0.657 | Value relative to DMSO control, drug alone (without KCN) (L1 wild-type C. elegans; 15 hour drug alone (without KCN) treatment, dose 100 µM, Mean of replicates): 0.425 | Value relative to DMSO control, drug alone (without KCN) (L1 wild-type C. elegans; 15 hour drug alone (without KCN) treatment, dose 100 µM, individual replicates): 0.232 and 0.150 and 0.884 and 0.433

Cc1ccccc1OCCCCn1cnc2ccccc21 [Compound 7732524]
# Mice cured/ # Mice investigated (H. polygyrus [1]; single oral dose 200 mg/kg): 0/4 | % Worm burden reduction (H. polygyrus [1]; [3]): 24.6% | Median # of living H. polygyrus worms (H. polygyrus [1]; single oral dose 200 mg/kg): 93.5 (5.0) | % Worm burden reduction (H. polygyrus [1]; [4]): 24.5968% | Live worms in intestine (individual mouse) (H. polygyrus [1]; single oral dose of 200 mg/kg): 95 and 92 and 111 and 85 | Live worms in intestine, Median (+/- MAD) (H. polygyrus [1]; single oral dose of 200 mg/kg): 93.5 (5.0)

COC(=O)Nc1nc2ccc(Sc3ccccc3)cc2[nH]1 [fenbendazole, reference compound]
reduction in H. polygyrus worm burden (H. polygyrus [2]): 90%

Cc1nc2ccccc2n1Cc1ccc(Cl)cc1 [STK697993]
viability score (0-1) relative to DMSO controls (L1 C. briggsae (AF16); 2 µM): 1.000 | viability score (0-1) relative to DMSO controls (L1 C. briggsae (AF16); 3.9 µM): 1.000 | viability score (0-1) relative to DMSO controls (L1 C. briggsae (AF16); 15.6 µM): 1.000 | viability score (0-1) relative to DMSO controls (L1 C. briggsae (AF16); 31.3 µM): 0.341 | viability score (0-1) relative to DMSO controls (L1 C. briggsae (AF16); 62.5 µM): 0.009 | viability score (0-1) relative to DMSO controls (L1 C. briggsae (AF16); 125 µM): 0.017 | viability score (0-1) relative to DMSO controls (L1 C. briggsae (AF16); 250 µM): 0.008

CCn1c(C(C)c2ccc(CC(C)C)cc2)nc2ccccc21 (centres unmarked) [STK951902]
# Mice cured/ # Mice investigated (H. polygyrus [1]; single oral dose 200 mg/kg): 0/4 | % Worm burden reduction (H. polygyrus [1]; [3]): 41.1% | Median # of living H. polygyrus worms (H. polygyrus [1]; single oral dose 200 mg/kg): 73.0 (1.5) | % Worm burden reduction (H. polygyrus [1]; [4]): 41.1290% | Live worms in intestine (individual mouse) (H. polygyrus [1]; single oral dose of 200 mg/kg): 73 and 52 and 76 | Live worms in intestine, Median (+/- MAD) (H. polygyrus [1]; single oral dose of 200 mg/kg): 73 (1.5)

Source: article PMC11079024, “Identification of a family of species-selective complex I inhibitors as potential anthelmintics” (Nature Communications, 2024)
